Assays:
Portulaca oleracea = experiment: Weed spectrum, greenhouse pot test; assay type: in vivo; conditions: two weeks after application
Summary of the method: (§1)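 Seeds of each species were sown into pots filled with sandy loam and top soil (1:1) and kept in a greenhouse. Test chemical was sprayed immediately after sowing (pre-emergence) or after two weeks' growth to about three-leaf stage (post-emergence). Efficacy was judged visually after two weeks, from 0 (none) to 100.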

Digitaria sanguinalis = experiment: Weed spectrum, greenhouse pot test; assay type: in vivo; conditions: for efficacy (0-100 scale): two weeks after application
Summary of the method: as §1

Cyperus amuricus = experiment: Weed spectrum, greenhouse pot test; assay type: in vivo; conditions: two weeks after application
Summary of the method: as §1

Veronica officinalis = experiment: Weed spectrum, greenhouse pot test; assay type: in vivo; conditions: two weeks after application
Summary of the method: as §1

Kentucky bluegrass = experiment: Turf grass selectivity, greenhouse pot test; assay type: in vivo, Poa pratensis
Summary of the method: (§2)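 Turf mats transplanted to pots of sandy loam/top soil (1:1), mown weekly to 0.5-1.0 cm and grown one month in greenhouse (25˜30° C. day, 15˜25° C. night). Test chemicals sprayed at 400, 200, 100, 50, 25, 12, 6, 3 g ai/ha in 2,000 L/ha tap-water dilution; three replicates, randomised, averaged.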

Dandelion = experiment: Weed spectrum, greenhouse pot test; assay type: in vivo; conditions: two weeks after application
Perennial rye grass = experiment: Turf grass selectivity, greenhouse pot test; assay type: in vivo
Summary of the method: as §2

Zoysia japonica = experiment: Turf grass selectivity, greenhouse pot test; assay type: in vivo; conditions: for phytotoxicity (visual assessment 0-10): Zoysia japonica
Summary of the method: as §2

COc1nc(C)nc(NC(=O)NS(=O)(=O)c2cscc2C2(CF)OCCO2)n1 [Example 2, 3-(2-fluoromethyl-1,3-dioxalan-2-yl)-N-[(4-methoxy-6-methyltriazin-2-yl)aminocarbonyl]4-thiophene sulfonamide]
20: efficacy (0-100 scale) (Cyperus amuricus; Pre-emergence, 12 g ai/ha) | efficacy (0-100 scale) (Veronica officinalis; Post-emergence, 12 g ai/ha) | efficacy (0-100 scale) (Veronica officinalis; Post-emergence, 25 g ai/ha) | efficacy (0-100 scale) (Veronica officinalis; Post-emergence, 50 g ai/ha) | efficacy (0-100 scale) (Veronica officinalis; Post-emergence, 100 g ai/ha)
4: phytotoxicity (visual assessment 0-10) (Zoysia japonica; 400 g ai/ha, 2 weeks)
5: phytotoxicity (visual assessment 0-10) (Kentucky bluegrass; 6 g ai/ha, 2 weeks) | phytotoxicity (visual assessment 0-10) (Kentucky bluegrass; 12 g ai/ha, 4 weeks) | phytotoxicity (visual assessment 0-10) (Perennial rye grass; 6 g ai/ha, 2 weeks) | phytotoxicity (visual assessment 0-10) (Perennial rye grass; 12 g ai/ha, 4 weeks)
1: phytotoxicity (visual assessment 0-10) (Kentucky bluegrass; 3 g ai/ha, 4 weeks) | phytotoxicity (visual assessment 0-10) (Perennial rye grass; 3 g ai/ha, 4 weeks) | phytotoxicity (visual assessment 0-10) (Zoysia japonica; 100 g ai/ha, 2 weeks) | phytotoxicity (visual assessment 0-10) (Zoysia japonica; 200 g ai/ha, 4 weeks)
0: phytotoxicity (visual assessment 0-10) (Zoysia japonica; 3 g ai/ha, 2 weeks) | phytotoxicity (visual assessment 0-10) (Zoysia japonica; 3 g ai/ha, 4 weeks) | phytotoxicity (visual assessment 0-10) (Zoysia japonica; 6 g ai/ha, 2 weeks) | phytotoxicity (visual assessment 0-10) (Zoysia japonica; 6 g ai/ha, 4 weeks) | phytotoxicity (visual assessment 0-10) (Zoysia japonica; 12 g ai/ha, 2 weeks) | phytotoxicity (visual assessment 0-10) (Zoysia japonica; 12 g ai/ha, 4 weeks) | phytotoxicity (visual assessment 0-10) (Zoysia japonica; 25 g ai/ha, 2 weeks) | phytotoxicity (visual assessment 0-10) (Zoysia japonica; 25 g ai/ha, 4 weeks) | phytotoxicity (visual assessment 0-10) (Zoysia japonica; 50 g ai/ha, 2 weeks) | phytotoxicity (visual assessment 0-10) (Zoysia japonica; 50 g ai/ha, 4 weeks) | phytotoxicity (visual assessment 0-10) (Zoysia japonica; 100 g ai/ha, 4 weeks)
50: efficacy (0-100 scale) (Cyperus amuricus; Post-emergence, 50 g ai/ha) | efficacy (0-100 scale) (Cyperus amuricus; Post-emergence, 100 g ai/ha) | efficacy (0-100 scale) (Cyperus amuricus; Pre-emergence, 50 g ai/ha) | efficacy (0-100 scale) (Veronica officinalis; Pre-emergence, 100 g ai/ha)
95: efficacy (0-100 scale) (Digitaria sanguinalis; Pre-emergence, 12 g ai/ha) | efficacy (0-100 scale) (Digitaria sanguinalis; Pre-emergence, 25 g ai/ha)
10: phytotoxicity (visual assessment 0-10) (Kentucky bluegrass; 25 g ai/ha, 2 weeks) | phytotoxicity (visual assessment 0-10) (Kentucky bluegrass; 25 g ai/ha, 4 weeks) | phytotoxicity (visual assessment 0-10) (Kentucky bluegrass; 50 g ai/ha, 2 weeks) | phytotoxicity (visual assessment 0-10) (Kentucky bluegrass; 50 g ai/ha, 4 weeks) | phytotoxicity (visual assessment 0-10) (Kentucky bluegrass; 100 g ai/ha, 2 weeks) | phytotoxicity (visual assessment 0-10) (Kentucky bluegrass; 100 g ai/ha, 4 weeks) | phytotoxicity (visual assessment 0-10) (Kentucky bluegrass; 200 g ai/ha, 2 weeks) | phytotoxicity (visual assessment 0-10) (Kentucky bluegrass; 200 g ai/ha, 4 weeks) | phytotoxicity (visual assessment 0-10) (Kentucky bluegrass; 400 g ai/ha, 2 weeks) | phytotoxicity (visual assessment 0-10) (Kentucky bluegrass; 400 g ai/ha, 4 weeks) | phytotoxicity (visual assessment 0-10) (Perennial rye grass; 25 g ai/ha, 2 weeks) | phytotoxicity (visual assessment 0-10) (Perennial rye grass; 25 g ai/ha, 4 weeks) | phytotoxicity (visual assessment 0-10) (Perennial rye grass; 50 g ai/ha, 2 weeks) | phytotoxicity (visual assessment 0-10) (Perennial rye grass; 50 g ai/ha, 4 weeks) | phytotoxicity (visual assessment 0-10) (Perennial rye grass; 100 g ai/ha, 2 weeks) | phytotoxicity (visual assessment 0-10) (Perennial rye grass; 100 g ai/ha, 4 weeks) | phytotoxicity (visual assessment 0-10) (Perennial rye grass; 200 g ai/ha, 2 weeks) | phytotoxicity (visual assessment 0-10) (Perennial rye grass; 200 g ai/ha, 4 weeks) | phytotoxicity (visual assessment 0-10) (Perennial rye grass; 400 g ai/ha, 2 weeks) | phytotoxicity (visual assessment 0-10) (Perennial rye grass; 400 g ai/ha, 4 weeks)
90: efficacy (0-100 scale) (Portulaca oleracea; Post-emergence, 25 g ai/ha) | efficacy (0-100 scale) (Portulaca oleracea; Pre-emergence, 12 g ai/ha) | efficacy (0-100 scale) (Portulaca oleracea; Pre-emergence, 25 g ai/ha) | efficacy (0-100 scale) (Digitaria sanguinalis; Post-emergence, 50 g ai/ha) | efficacy (0-100 scale) (Dandelion; Post-emergence, 12 g ai/ha) | efficacy (0-100 scale) (Dandelion; Post-emergence, 25 g ai/ha) | efficacy (0-100 scale) (Dandelion; Pre-emergence, 12 g ai/ha) | efficacy (0-100 scale) (Dandelion; Pre-emergence, 25 g ai/ha)
3: phytotoxicity (visual assessment 0-10) (Kentucky bluegrass; 3 g ai/ha, 2 weeks) | phytotoxicity (visual assessment 0-10) (Kentucky bluegrass; 6 g ai/ha, 4 weeks) | phytotoxicity (visual assessment 0-10) (Perennial rye grass; 3 g ai/ha, 2 weeks) | phytotoxicity (visual assessment 0-10) (Perennial rye grass; 6 g ai/ha, 4 weeks) | phytotoxicity (visual assessment 0-10) (Zoysia japonica; 400 g ai/ha, 4 weeks)
40: efficacy (0-100 scale) (Digitaria sanguinalis; Post-emergence, 12 g ai/ha) | efficacy (0-100 scale) (Cyperus amuricus; Post-emergence, 25 g ai/ha) | efficacy (0-100 scale) (Veronica officinalis; Pre-emergence, 50 g ai/ha)
high safety: safety to Zoysia japonica (Zoysia japonica; 100 g ai/ha or less)
7: phytotoxicity (visual assessment 0-10) (Kentucky bluegrass; 12 g ai/ha, 2 weeks) | phytotoxicity (visual assessment 0-10) (Perennial rye grass; 12 g ai/ha, 2 weeks)
60: efficacy (0-100 scale) (Cyperus amuricus; Pre-emergence, 100 g ai/ha)
100: efficacy (0-100 scale) (Portulaca oleracea; Post-emergence, 50 g ai/ha) | efficacy (0-100 scale) (Portulaca oleracea; Post-emergence, 100 g ai/ha) | efficacy (0-100 scale) (Portulaca oleracea; Pre-emergence, 50 g ai/ha) | efficacy (0-100 scale) (Portulaca oleracea; Pre-emergence, 100 g ai/ha) | efficacy (0-100 scale) (Digitaria sanguinalis; Post-emergence, 100 g ai/ha) | efficacy (0-100 scale) (Digitaria sanguinalis; Pre-emergence, 50 g ai/ha) | efficacy (0-100 scale) (Digitaria sanguinalis; Pre-emergence, 100 g ai/ha) | efficacy (0-100 scale) (Dandelion; Post-emergence, 50 g ai/ha) | efficacy (0-100 scale) (Dandelion; Post-emergence, 100 g ai/ha) | efficacy (0-100 scale) (Dandelion; Pre-emergence, 50 g ai/ha) | efficacy (0-100 scale) (Dandelion; Pre-emergence, 100 g ai/ha)
2: phytotoxicity (visual assessment 0-10) (Zoysia japonica; 200 g ai/ha, 2 weeks)
at least 90%: weed controlled (Digitaria sanguinalis; 50 to 100 g/ha)
70: efficacy (0-100 scale) (Portulaca oleracea; Post-emergence, 12 g ai/ha) | efficacy (0-100 scale) (Digitaria sanguinalis; Post-emergence, 25 g ai/ha)
30: efficacy (0-100 scale) (Cyperus amuricus; Post-emergence, 12 g ai/ha) | efficacy (0-100 scale) (Cyperus amuricus; Pre-emergence, 25 g ai/ha) | efficacy (0-100 scale) (Veronica officinalis; Pre-emergence, 12 g ai/ha) | efficacy (0-100 scale) (Veronica officinalis; Pre-emergence, 25 g ai/ha)

Reference: patent US20100035755A1, “METHOD OF CONTROLLING WEEDS IN A TURF GRASS BY USING SULFONYLUREA COMPOUNDS” (Moghu Research Center Ltd., priority 2008, published 2010)
